Test results published in article PMC8536644, “Enigmatic mechanism of the N-vinylpyrrolidone hepatocarcinogenicity in the rat” (Archives of Toxicology, 2021).

How the values were obtained:
[1] = system: CYP2B; experiment: PROD assay, liver microsomes (CAR marker); type: in vivo, rat; conditions: male rats
Description: (§1) The alkoxyresorufin dealkylase (AROD) assays were based on the method by Burke et al. ([1994]).
(§2) The frozen livers and lungs of the NVP-treated male Wistar rats were thawed and washed with isotonic (0.9%) NaCl solution. The tissues were ice-cooled homogenized (1 g tissue: 3 mL 0.25 M saccharose in 1 mM disodium EDTA, pH 7.4) and centrifuged (9000 g, 15 min, 4 °C). The supernatant fraction was centrifuged (100 000 g, 60 min, 4 °C). The resulting supernatant fraction was used for the palmitoyl-CoA-oxidase assay described further down. The pellet was taken up in 150 mM aqueous KCl solution, recentrifuged (100 000 g, 60 min, 4 °C) and the pellet taken up in 1 mL/g liver or 0.5 mL/g lung resuspension buffer (1 mM GSH, 1 mM disodium EDTA, 4 mM MgCl2, 0.1 M KH2PO4, pH 7.5 and 4% glycerol). Aliquots were stored at − 80 °C.
(§3) For determination of the enzyme activities in triplicates, 85 µL master mix (100 mM TrisHCl pH 7.5, 2 mM 5’AMP, 5 mM G-6-P, 10 U G-6-P-DH, 10 mM Dicumarol, 10 mM MgCl2, either 2 µM EROD or 10 µM PROD or 5 µM BROD) was added to 10 µL microsomal fraction (1 mg protein/mL). The reaction was started by the addition of 5 µL 2 mM NADPH (dissolved in 100 mM TrisHCl pH 7.5) followed by incubation at 37 °C for 16 min. The activity was determined by measuring the increase of the fluorescence (excitation at 550 nm, emission at 585 nm) due to resorufin formation compared with resorufin standards, which had been prepared by dissolving tenfold concentrated solutions in DMSO, which were then diluted tenfold in 100 mM TrisHCl pH 7.5.

[2] = system: CYP2B; experiment: PROD assay, lung microsomes; type: in vivo, rat; conditions: 20 ppm
Description: as §1
as §2, with “Aliquots were stored at − 80 °C.” left out
as §3, with “The reaction was started by the addition of 5 µL 2 mM NADPH (dissolved in 100 mM TrisHCl pH 7.5) followed by incubation at 37 °C for 16 min.” left out

[3] = system: CYP2B; experiment: PROD inhibition control in Aroclor 1254-induced rat liver microsomes; type: biochemical; conditions: for PROD enzyme activity: 0 µM control 78.9 ± 3.2
Description: as §3
(§4) As a method control the described AROD assay was performed with microsomal fractions derived from liver and lung of male Wistar rats which had been treated i.p. for 5 days with aroclor 1254 (500 mg/kg bw). These control assays were performed in presence of 1 μM, 10 μM or 100 μM NVP, respectively, in order to check for potential interactions of NVP with the substrate turnover in the AROD assay.

[4] = system: CYP 2B/3A; experiment: BROD inhibition control in Aroclor 1254-induced rat liver microsomes; type: biochemical; conditions: for BROD enzyme activity: 0 µM control 445.1 ± 9.1
Description: as §3, §4

[5] = system: primary rat hepatocytes; experiment: Gene expression analysis (Affymetrix) in cultivated rat hepatocytes; type: cell-based; conditions: 24 h; for Nrg1 upregulation / PDK4 upregulation / Atf3 upregulation: adj. p < 0.001
Description: Isolation and cultivation of primary rat hepatocytes was performed according to a published standard operation procedure (Godoy et al. [2013]) and Affymetrix gene array analysis as described in Grinberg et al. ([2018]). Briefly, male Wistar rats with a body weight of 220–300 g were purchased from Charles River (Sulzfeld, Germany). The animals had free access to food (sniff, Soest, Germany) and water and were kept under controlled temperature (18–26 °C), humidity (30–70%) and lighting (12 h light/dark circle). Prior to any experimental procedure, the animals were acclimated for a minimum of 6 days. This study was approved by the local committee for the welfare of experimental animals and was performed in accordance with national legislation. RNA was extracted from cultivated primary hepatocytes as described by Heise et al. ([2012]). Incubation of the cultivated rat hepatocytes with the test compounds was performed for 24 h. Rat hepatocytes were cultivated as sandwich cultures using 6well dishes. Three independent incubations with the test compound were performed. For Affymetrix gene chip analysis samples isolated from the 6-well dishes were stored in RNAprotect reagent from Qiagen until isolation of RNA. The RNA was quantified using a NanoDrop N-1000 spectrophotometer, and the integrity of RNA was confirmed with a standard sense automated gel electrophoresis system. Samples were used for transcriptional profiling only when their RNA quality indicator (RQI) number was > 8. First-strand cDNA was synthesized from 100 ng total RNA using an oligo-dT primer with an attached T7 promoter sequence, followed by the complementary second strand. The double-stranded cDNA molecule was used for in vitro transcription (IVT, standard Affymetrix procedure) using Genechip 3′ IVT Express Kit. During synthesis of the aRNA (amplified RNA, also commonly referred to as cRNA), a biotinylated nucleotide analogue was incorporated, which served as a label for the message. After amplification, aRNA was purified with magnetic beads and 15 µg of aRNA was fragmented with the fragmentation buffer as per the manufacturer’s instructions. Then 12.5 µg fragmented aRNA was hybridized with Affymetrix Rat Genome 230 2.0 Arrays. The chips were placed in a GeneChip Hybridization Oven-645 for 16 h at 60 rpm and 45 °C. For staining and washing, Affymetrix HWS kits were used on a Genechip Fluidics Station-450. For scanning, the Affymetrix GeneChip Scanner-3000-7G was used, and the image and quality control assessments were performed with Affymetrix GCOS software. All reagents and instruments were acquired from Affymetrix (Affymetrix, Santa Clara, CA, USA). The generated CEL files were used for further statistical analysis as described in Grinberg et al., 2018).

[6] = system: estrogen receptor α; design: method as in ToxCast (comptox.epa.gov dashboard); conditions: ref ToxCast (comptox.epa.gov dashboard); cited from earlier work

C=CN1CCCC1=O [NVP, N-vinylpyrrolidone]
Liver microsomal PROD activity ([1]; 5 ppm): 12.4 ± 1.9 pmol/min/mg protein | Liver microsomal PROD activity ([1]; 10 ppm): 16.5 ± 4.3 pmol/min/mg protein | Liver microsomal PROD activity ([1]; 20 ppm): 10.0 ± 2.8 pmol/min/mg protein | PROD activity in lung microsomes vs vehicle control [2]: not significantly different | PROD enzyme activity ([3]; 1 µM NVP): 88.6 ± 3.3 pmol/min/mg protein | PROD enzyme activity ([3]; 10 µM NVP): 92.1 ± 6.0 pmol/min/mg protein | PROD enzyme activity ([3]; 100 µM NVP): 94.6 ± 2.3 pmol/min/mg protein | Inhibition of PROD activity ([3]; 1, 10 or 100 µM NVP): does not lead to inhibition | BROD enzyme activity ([4]; 1 µM NVP): 470.1 ± 29.7 pmol/min/mg protein | BROD enzyme activity ([4]; 10 µM NVP): 445.1 ± 20.9 pmol/min/mg protein | BROD enzyme activity ([4]; 100 µM NVP): 456.5 ± 30.9 pmol/min/mg protein | Inhibition of BROD activity ([4]; 1, 10 or 100 µM NVP): does not lead to inhibition | Nrg1 upregulation ([5]; 40 µM): 3.5 fold | PDK4 upregulation ([5]; 40 µM): 3.5 fold | Atf3 upregulation ([5]; 200 µM): 5.1 | Nrg1 upregulation ([5]; 200 µM): 6.2 fold | PDK4 upregulation ([5]; 200 µM): 5.9 fold | Atf3 upregulation ([5]; 1000 µM): 7.1 | Nrg1 upregulation ([5]; 1000 µM): 7.3 fold | PDK4 upregulation ([5]; 1000 µM): 8.8 fold | Lowest concentration with expression changes (PCA) ([5]; 8, 40, 200 and 1000 µM tested): 8 µM | Effect on estrogen receptor α [6]: activates
